Results on 16 compounds are retold here after patent publication US11786534B2 (TAIHO PHARMACEUTICAL CO., LTD., priority 2019, dated 2023).

Where two headings read alike, the source gives them in different places. A value given as a limit tells only on which side of the number the result lay.

For orientation: IC50 means the concentration needed to halve the response being measured. A high value points to a need for much substance.

The target of assay [1] is T1, human EGFR (d746-750/T790M/C797S) (Homo sapiens, UniProt P00533, C797S/DEL746-750/T790M).
T1 construct: made in house; host or cells: Sf9 insect cells, baculovirus
In words: Inhibitory activity against EGFR (d746-750/T790M/C797S) kinase. Conditions: Test Example 1, Table 2; ATP 6 μM, 25° C., 120 minutes. Format: biochemical. In outline:
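GST-fused cytoplasmic domain of human EGFR d746-750/T790M/C797S (Sf9-expressed) was incubated with 250 nM biotinylated peptide, 6 μM ATP, 10 mM MgCl2 and 10 mM MnCl2 (2.5% DMSO) for 120 min at 25 °C. After an EDTA stop, phosphotyrosine was detected by Eu-PT66/SureLight APC-SA TR-FRET (665/620 nm, excitation 337 nm). Background wells received EDTA before enzyme.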

Assay [2] has as its target Ba/F3-EGFR (L858R/T790M/C797S) (Homo sapiens, UniProt P00533, T790M/C797S/L858R, cells depend on it). Kind of assay: Growth inhibition of cell line expressing EGFR (L858R/T790M/C797S). The settings on record: read-out: BaF3_EGFR (L858R/T790M/C797S) IC50 value. Format: cell-based, mouse. An excerpt:
(§1) Test for inhibitory activity against the growth of cell lines expressing wild-type and mutated EGFRs (in vitro)
(§2) (1) Mouse cell line Ba/F3-EGFR (d746-750/T790M/C797S) transfected with and stably expressing EGFR (d746-750/T790M/C797S), mouse cell Ba/F3-EGFR (L858R/T790M/C797S) transfected with and stably expressing EGFR (L858R/T790M/C797S), and mouse cell line Ba/F3-EGFR (WT) transfected with and stably expressing wild-type EGFR were each suspended in RPMI-1640 cell culture medium (RPMI-1640, 10% FBS, 100 unit/ml penicillin, 0.1 mg/ml streptomycin). In the case of the mouse cell line Ba/F3-EGFR (WT), RPMI-1640 cell culture medium containing EGF at a final concentration of 50 ng/ml was used to suspend this cell line. It should be noted that the mouse cell line Ba/F3-EGFR (d746-750/T790M/C797S) transfected with and stably expressing EGFR (d746-750/T790M/C797S), the mouse cell line Ba/F3-EGFR (L858R/T790M/C797S) transfected with and stably expressing EGFR (L858R/T790M/C797S) and the mouse cell line Ba/F3-EGFR (WT) transfected with and stably expressing wild-type EGFR were prepared by using nucleotide sequences encoding the proteins of SEQ ID NOs: 1 and 2 in accordance with Test Example 1 in WO2018/079310, These cell suspensions were seeded in wells of 96-well flat -bottomed plates. The compounds of the present invention were dissolved in DMSO, and serial dilutions of these test compounds were prepared with DMSO (1000-fold of the final concentration). Each test compound solution in DMSO or DMSO alone was diluted with RPMI-1640 cell culture medium for each cell line, and this dilution was added to wells of the cell culture plate such that the final concentration of DMSO was 0.1%, followed by culture at 37° C. for 3 days in a 5% carbon dioxide gas-containing incubator. Before and after addition of each test compound solution in DMSO, the number of cells was counted using the CellTiter-Glo® system (Promega) on the basis of the protocol recommended by Promega.
(§3) In each cell line, the rate of cell growth inhibition was calculated according to the equation shown below in wells to which each test compound was added at different concentrations. Moreover, the inhibition rate at each concentration was plotted for each test compound, and the concentration of each test compound required to give 50% cell survival rate, i.e., IC50 (nM) was determined by curve fitting software XLfit (IDBS).
(§4) Cell survival rate (%)=T/C×100
(§5) T: emission intensity in a well cultured for 3 days after addition of a test compound solution
(§6) C: emission intensity in a well cultured for 3 days after addition of DMSO
(§7) In accordance with the same procedures as shown in Test Example 2, the compounds of the present invention were tested for their inhibitory activity against the growth of the cell hoes expressing wild-type and mutated EGFRs.

The next assay deals with Ba/F3-EGFR (WT) (Homo sapiens, UniProt P00533). In words: Growth inhibition of cell line expressing wild-type EGFR. Conditions: read-out: BaF3_EGFR (WT) IC50 value. It is filed as cell-based, mouse.
From the text: as §1, §2, §3, §4, §5, §6, §7

The mark [3] stands for this setting: Test Example 2, Table 7, culture 3 days, CellTiter-Glo.
The mark [4] stands for this setting: Test Example 2, Table 7, culture 3 days, EGF 50 ng/ml, CellTiter-Glo.
The mark [5] stands for this setting: Test Example 4, Table 13, same procedures as Test Example 2.

Ba/F3-EGFR (WT), sequence (P00533 whole entry, change not shown): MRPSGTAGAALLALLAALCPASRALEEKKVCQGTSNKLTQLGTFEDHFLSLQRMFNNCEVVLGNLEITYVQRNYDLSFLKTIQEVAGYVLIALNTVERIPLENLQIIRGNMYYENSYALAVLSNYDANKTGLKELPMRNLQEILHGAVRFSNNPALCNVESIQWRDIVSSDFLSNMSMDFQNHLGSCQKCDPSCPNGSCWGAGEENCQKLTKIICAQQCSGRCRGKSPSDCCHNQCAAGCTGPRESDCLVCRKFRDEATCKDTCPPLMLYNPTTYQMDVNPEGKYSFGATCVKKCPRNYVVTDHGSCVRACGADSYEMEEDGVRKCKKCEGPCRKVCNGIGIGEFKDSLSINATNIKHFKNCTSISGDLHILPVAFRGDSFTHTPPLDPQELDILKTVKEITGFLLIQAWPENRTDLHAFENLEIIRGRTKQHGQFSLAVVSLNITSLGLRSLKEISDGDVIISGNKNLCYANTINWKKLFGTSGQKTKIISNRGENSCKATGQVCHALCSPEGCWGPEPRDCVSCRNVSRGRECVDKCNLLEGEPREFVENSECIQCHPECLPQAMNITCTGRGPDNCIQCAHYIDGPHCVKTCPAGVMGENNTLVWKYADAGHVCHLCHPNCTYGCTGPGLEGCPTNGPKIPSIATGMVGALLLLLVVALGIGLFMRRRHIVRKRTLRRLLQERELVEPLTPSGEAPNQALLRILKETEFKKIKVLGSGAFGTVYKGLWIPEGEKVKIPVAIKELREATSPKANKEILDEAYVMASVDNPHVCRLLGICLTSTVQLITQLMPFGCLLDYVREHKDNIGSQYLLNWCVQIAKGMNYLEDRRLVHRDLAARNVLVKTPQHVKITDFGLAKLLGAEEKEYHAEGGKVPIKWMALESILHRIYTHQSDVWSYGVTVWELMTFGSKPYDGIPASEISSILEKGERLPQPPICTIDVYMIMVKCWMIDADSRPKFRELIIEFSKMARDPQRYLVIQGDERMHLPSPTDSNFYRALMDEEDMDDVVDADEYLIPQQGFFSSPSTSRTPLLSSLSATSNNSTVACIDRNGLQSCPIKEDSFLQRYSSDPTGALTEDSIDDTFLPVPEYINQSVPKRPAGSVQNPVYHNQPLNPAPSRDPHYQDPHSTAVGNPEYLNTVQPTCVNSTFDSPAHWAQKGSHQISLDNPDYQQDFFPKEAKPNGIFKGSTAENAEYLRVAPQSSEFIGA
T1 sequence (P00533 with tags, fused parts or gaps DEL746-750/T790M/C797S): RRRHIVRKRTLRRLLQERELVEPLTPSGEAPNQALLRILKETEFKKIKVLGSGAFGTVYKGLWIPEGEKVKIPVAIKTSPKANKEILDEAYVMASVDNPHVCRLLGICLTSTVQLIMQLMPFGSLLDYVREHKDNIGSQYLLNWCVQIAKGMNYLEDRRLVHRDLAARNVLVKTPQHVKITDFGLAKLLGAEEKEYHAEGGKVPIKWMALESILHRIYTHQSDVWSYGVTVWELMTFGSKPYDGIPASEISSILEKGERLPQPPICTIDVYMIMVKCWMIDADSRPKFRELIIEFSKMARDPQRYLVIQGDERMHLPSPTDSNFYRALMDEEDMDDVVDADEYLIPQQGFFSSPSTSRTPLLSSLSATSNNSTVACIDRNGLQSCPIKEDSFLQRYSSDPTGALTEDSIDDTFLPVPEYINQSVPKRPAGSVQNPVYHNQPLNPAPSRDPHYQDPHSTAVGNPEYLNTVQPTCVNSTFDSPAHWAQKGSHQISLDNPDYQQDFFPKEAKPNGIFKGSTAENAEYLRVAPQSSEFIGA
Ba/F3-EGFR (L858R/T790M/C797S), sequence (P00533 whole entry T790M/C797S/L858R): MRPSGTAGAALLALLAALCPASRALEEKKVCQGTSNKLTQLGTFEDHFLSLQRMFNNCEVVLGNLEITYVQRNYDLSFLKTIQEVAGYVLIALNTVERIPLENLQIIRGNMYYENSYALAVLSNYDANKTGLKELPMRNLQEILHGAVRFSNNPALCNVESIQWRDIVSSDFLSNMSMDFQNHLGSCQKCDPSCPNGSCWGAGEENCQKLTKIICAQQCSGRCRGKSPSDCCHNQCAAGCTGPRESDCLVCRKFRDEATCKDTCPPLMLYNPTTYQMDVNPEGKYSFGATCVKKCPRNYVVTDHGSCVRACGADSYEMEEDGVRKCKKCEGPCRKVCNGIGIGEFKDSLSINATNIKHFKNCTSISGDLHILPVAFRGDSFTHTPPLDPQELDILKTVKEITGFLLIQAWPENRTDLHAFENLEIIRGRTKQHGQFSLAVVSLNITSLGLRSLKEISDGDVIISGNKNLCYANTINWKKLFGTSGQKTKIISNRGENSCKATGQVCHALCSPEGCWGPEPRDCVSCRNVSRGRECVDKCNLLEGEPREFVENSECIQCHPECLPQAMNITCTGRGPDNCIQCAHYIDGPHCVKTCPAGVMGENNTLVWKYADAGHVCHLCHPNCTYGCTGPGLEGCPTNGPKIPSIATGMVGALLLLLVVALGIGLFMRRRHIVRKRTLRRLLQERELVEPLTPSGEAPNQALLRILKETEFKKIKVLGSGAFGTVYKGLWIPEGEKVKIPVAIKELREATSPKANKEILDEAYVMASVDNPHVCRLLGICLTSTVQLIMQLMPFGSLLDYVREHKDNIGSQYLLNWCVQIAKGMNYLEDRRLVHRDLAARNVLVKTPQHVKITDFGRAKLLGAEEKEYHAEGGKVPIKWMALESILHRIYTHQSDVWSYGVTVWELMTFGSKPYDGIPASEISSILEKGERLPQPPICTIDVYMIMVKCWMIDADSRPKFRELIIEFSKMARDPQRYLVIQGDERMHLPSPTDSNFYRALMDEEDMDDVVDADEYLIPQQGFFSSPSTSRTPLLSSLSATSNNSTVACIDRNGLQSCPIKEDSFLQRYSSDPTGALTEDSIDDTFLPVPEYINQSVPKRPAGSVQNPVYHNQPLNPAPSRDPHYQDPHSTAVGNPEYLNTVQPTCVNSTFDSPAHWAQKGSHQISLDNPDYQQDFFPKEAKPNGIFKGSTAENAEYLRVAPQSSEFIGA

As to `C=CC(=O)N1CC[C@@H](n2cc(-c3cnc4ccccc4c3)c3c(N)ncnc32)C1` [Comparative Example A, (R)-1-(3(4-Amino-5-(quinolin-3-yl)-7H-pyrrolo[2,3-d]pyrimidin-7-yl)pyrrolidin-1-yl) -prop-2-en-1-one, reference compound], the IC50 in assay [1] is 0.142 µM. Moreover, the GI50 in assay [2] (setting [3]) amounted to 2.26 µM; at Ba/F3-EGFR (WT) (setting [4]), 2.46 µM.

In assay [1], `C#Cc1c(-c2cnc3ccccc3c2)c2c(N)ncnc2n1[C@@H]1CCN(C(=O)C=C)C1` [Comparative Example B, (R)-1-(3-(4-Amino-6-ethynyl-5-(quinolin-3-yl)-7H-pyrrolo[2,3-d]pyrimidin-7-yl) -pyrrolidin-1-yl)-prop-2-en-1-one, reference compound] came in with an IC50 of 0.026 µM. In addition, the GI50 in assay [2] (setting [3]) turned out to be 3.59 µM; on Ba/F3-EGFR (WT) (setting [4]), 1.05 µM.

`C#Cc1c(-c2cnc3ccccc3c2)c2c(N)ncnc2n1C12CCC(NC(=O)c3ccccc3)(CC1)C2` [Example 1, N-(4-(4-Amino-6-ethynyl-5-(quinolin-3-yl)-7H-pyrrolo[2,3-d]pyrimidin-7-yl)bicyclo-[2.2.1]heptan-1-yl)benzamide]: in assay [1], the IC50 is less than 0.0003 µM. Also, the GI50 in assay [2] (setting [5]) worked out at 0.887 µM; on Ba/F3-EGFR (WT) (setting [5]), 3.49 µM.

In the case of `C#Cc1c(-c2cnc3ccccc3c2)c2c(N)ncnc2n1C12CCC(NC(=O)c3cncnc3)(CC1)C2` [Example 2, N-(4-(4-Amino-6-ethynyl-5-(quinolin-3-yl)-7H-pyrrolo[2,3-d]pyrimidin-7-yl)bicyclo-[2.2.1]heptan-1-yl)pyrimidine-5-carboxamide], in assay [1], the IC50 was less than 0.0003 µM. For the same compound, the GI50 in assay [2] (setting [3]) is 0.185 µM; at Ba/F3-EGFR (WT) (setting [4]), 2.65 µM.

With `C#Cc1c(-c2cnc3ccccc3c2)c2c(N)ncnc2n1C12CCC(NC(=O)c3ccnnc3)(CC1)C2` [Example 3, N-(4-(4-Amino-6-ethynyl-5-(quinolin-3-yl)-7H-pyrrolo[2,3-d]pyrimidin-7-yl)bicyclo-[2.2.1]heptan-1-yl)pyridazine-4-carboxamide], the IC50 in assay [1] was less than 0.0003 µM. Further, the GI50 came out at 0.529 µM in assay [2] (setting [3]) and 3.33 µM on Ba/F3-EGFR (WT) (setting [4]).

With `C#Cc1c(-c2cnc3ccccc3c2)c2c(N)ncnc2n1C12CCC(N3CCOCC3)(CC1)C2` [Example 9, 6-Ethynyl-7-(4-morpholinobicyclo[2.2.1]heptan-1-yl)-5-(quinolin-3-yl)-7H-pyrrolo[2,3-d]pyrimidine-4-amine], the IC50 in assay [1] is less than 0.0003 µM. Moreover, the values for the GI50 (in assay [2] (setting [5]); on Ba/F3-EGFR (WT) (setting [5])) were 0.592 µM and more than 2 µM, respectively.

For the compound `C#Cc1c(-c2cnc3ccccc3c2)c2c(N)ncnc2n1C12CCC(CNC(=O)c3ccnn3C)(CC1)C2` [Example 13, N-((4-(4-Amino-6-ethynyl-5-(quinolin-3-yl)-7H-pyrrolo[2,3-d]pyrimidin-7-yl)bicyclo-[2.2.1]heptan-1-yl)methyl)-1-methyl-1H-pyrazole-5-carboxamide], the IC50 in assay [1] is less than 0.0003 µM. Moreover, the results for the GI50 (in assay [2] (setting [3]); at Ba/F3-EGFR (WT) (setting [4])) were 0.91 µM and 3.6 µM, respectively.

In assay [1], `C#Cc1c(-c2cnc3ccccc3c2)c2c(N)ncnc2n1C12CCC(CNC(=O)c3cnc(C)cn3)(CC1)C2` [Example 14, N-((4-(4-Amino-6-ethynyl-5-(quinolin-3-yl)-7H-pyrrolo[2,3-d]pyrimidin-7-yl)bicyclo-[2.2.1]heptan-1-yl)methyl)-5-methylpyrazine-2-carboxamide] gave an IC50 of less than 0.0003 µM. The GI50 in assay [2] (setting [3]) came to 0.952 µM; on Ba/F3-EGFR (WT) (setting [4]), 3.5 µM.

Take `C#Cc1c(-c2cnc3ccccc3c2)c2c(N)ncnc2n1C12CCC(NC(=O)c3ccc4ncnn4c3)(CC1)C2` [Example 16, N-(4-(4-Amino-6-ethynyl-5-(quinolin-3-yl)-7H-pyrrolo[2,3-d]pyrimidin-7-yl)bicyclo-[2.2.1]heptan-1-yl)-[1.2.4]triazolo[1,5-a]pyrimidin-6-carboxamide]: the IC50 in assay [1] is less than 0.0003 µM. In addition, the GI50 in assay [2] (setting [5]) came to 0.283 µM; on Ba/F3-EGFR (WT) (setting [5]), 1.92 µM.

For `C#Cc1c(-c2cnc3ccccc3c2)c2c(N)ncnc2n1C12CCC(NC(=O)c3cnns3)(CC1)C2` [Example 18, N-(4-(4-Amino-6-ethynyl-5-(quinolin-3-yl)-7H-pyrrolo[2,3-d]pyrimidin-7-yl)bicyclo-[2.2.1]heptan-1-yl)-1,2,3-thiadiazole-5-carboxamide], in assay [1], the IC50 is less than 0.0003 µM. Also, the results for the GI50 (in assay [2] (setting [5]); at Ba/F3-EGFR (WT) (setting [5])) were 1.27 µM and 2.48 µM, respectively.

The compound `C#Cc1c(-c2cnc3ccccc3c2)c2c(N)ncnc2n1C12CCC(NC(=O)c3ccnn3C3CC3)(CC1)C2` [Example 20, N-(4-(4-Amino-6-ethynyl-5-(quinolin-3-yl)-7H-pyrrolo[2,3-d]pyrimidin-7-yl)bicyclo-[2.2.1]heptan-1-yl)-1-cyclopropyl-1H-pyrazole-5-carboxamide] had an IC50 in assay [1] of less than 0.0003 µM. Besides, the GI50 came to 0.245 µM in assay [2] (setting [5]) and 2.65 µM at Ba/F3-EGFR (WT) (setting [5]).

In assay [1], `C#Cc1c(-c2cnc3ccccc3c2)c2c(N)ncnc2n1C12CCC(NC(=O)c3nccn3C)(CC1)C2` [Example 23, N-(4-(4-Amino-6-ethynyl-5-(quinolin-3-yl)-7H-pyrrolo[2,3-d]pyrimidin-7-yl)bicyclo-[2.2.1]heptan-1-yl)-1-methyl-1H-imidazole-2-carboxamide] yielded an IC50 of less than 0.0003 µM. Besides, the GI50 in assay [2] (setting [5]) stood at 0.649 µM; at Ba/F3-EGFR (WT) (setting [5]), 3.19 µM.

As for `C#Cc1c(-c2cnc3ccccc3c2)c2c(N)ncnc2n1C12CCC(NC(=O)c3ccnn3C)(CC1)C2` [Example 24, N-(4-(4-Amino-6-ethynyl-5-(quinolin-3-yl)-7H-pyrrolo[2,3-d]pyrimidin-7-yl)bicyclo-[2.2.1]heptan-1-yl)-1-methyl-1H-pyrazole-5-carboxamide], the IC50 in assay [1] was less than 0.0003 µM. Also, the values for the GI50 (in assay [2] (setting [3]); at Ba/F3-EGFR (WT) (setting [4])) were 0.403 µM and 3.79 µM, respectively.

In assay [1], `C#Cc1c(-c2cnc3ccccc3c2)c2c(N)ncnc2n1C12CCC(NC(=O)C(F)F)(CC1)C2` [Example 27, N-(4-(4-Amino-6-ethynyl-5-(quinolin-3-yl)-7H-pyrrolo[2,3-d]pyrimidin-7-yl)bicyclo-[2.2.1]heptan-1-yl)-2,2-difluoroacetamide] showed an IC50 of less than 0.0003 µM. The results for the GI50 (in assay [2] (setting [5]); at Ba/F3-EGFR (WT) (setting [5])) were 0.754 µM and more than 2 µM, respectively.

For the compound `C#Cc1c(-c2cnc3ccccc3c2)c2c(N)ncnc2n1C12CCC(NC(=O)c3cncc(F)c3)(CC1)C2` [Example 35, N-(4-(4-Amino-6-ethynyl-5-(quinolin-3-yl)-7H-pyrrolo[2,3-d]pyrimidin-7-yl)-bicyclo-[2.2.1]heptan-1-yl)-5-fluoronicotinamide], the IC50 in assay [1] was less than 0.0003 µM. In addition, the GI50 was 0.348 µM in assay [2] (setting [5]) and 2.96 µM at Ba/F3-EGFR (WT) (setting [5]).

With `C#Cc1c(-c2cnc3ccccc3c2)c2c(N)ncnc2n1C12CCC(NC(=O)c3noc(C)n3)(CC1)C2` [Example 36, N-(4-(4-Amino-6-ethynyl-5-(quinolin-3-yl)-7H-pyrrolo[2,3-d]pyrimidin-7-yl)-bicyclo-[2.2.1]heptan-1-yl)-5-methyl-1,2,4-oxadiazole-3-carboxamide], the IC50 in assay [1] is less than 0.0003 µM. For the same compound, the figures for the GI50 (in assay [2] (setting [5]); at Ba/F3-EGFR (WT) (setting [5])) were 0.448 µM and more than 2 µM, respectively.
